# Data: paper PMC3718800, “Structural and Functional Perturbation of Giardia lamblia Triosephosphate Isomerase by Modification of a Non-Catalytic, Non-Conserved Region” (PLoS ONE, 2013)
# Values joined by “and” are separate entries in the source; they are usually repeats but may differ in a detail not shown here. Equal entries are not always repeated.
# What was measured:
# C222N GlTIM [1] = target: T1, C222N GlTIM (Giardia intestinalis, UniProt P36186, C222N); assay: Binding of 2-PG by change in intrinsic fluorescence; set-up: species or system Giardia lamblia
# T1 construct: made in house; host or cells: E. coli BL21(DE3)pLys
# Description: (§1) The change in the intrinsic fluorescence of GlTIM in response to the addition of the transition state analog 2-PG was used to determine the affinity of the enzyme for this ligand, as previously reported. Intrinsic fluorescence spectra were collected before and after each addition of 1 or 2 μL aliquots of a 3 or 30 mM stock solution of 2-PG. The final volume added to the fluorescence cell was always less than 5% of the total volume; there was no effect on the absorbance of the protein solution at 280 nm at the highest 2-PG concentration assayed. In all cases, the spectra of samples without protein were subtracted from those that contained the enzyme. For each mutant, the maximal fluorescence intensity at 332 nm, for every 2-PG concentration, was plotted and fitted to y = (α/2Et)(Et+x+Kd) - √ (Et+x+Kd)^2– (4xEt), where y = 1 - (Fi/F) (Fi, initial fluorescence; F, fluorescence intensity at each 2-PG concentration); α is the maximal fluorescence change attained at saturating concentration of the ligand, Et represents the concentration of binding sites, Kd is the equilibrium dissociation constant and x is the concentration of 2-PG [21], [23].
# C222D GlTIM [2] = target: T2, C222D GlTIM (Giardia intestinalis, UniProt P36186, C222D); assay: as above; set-up: species or system Giardia lamblia
# T2 construct: made in house; host or cells: E. coli BL21(DE3)pLys
# Description: as §1
# C222F GlTIM [3] = target: T3, C222F GlTIM (Giardia intestinalis, UniProt P36186, C222F); assay: as above; set-up: species or system Giardia lamblia
# T3 construct: made in house; host or cells: E. coli BL21(DE3)pLys
# Description: as §1
# WT GlTIM [4] = target: T4, WT GlTIM (Giardia intestinalis, UniProt P36186); assay: as above; set-up: species or system Giardia lamblia; details: 2-PG vs WT GlTIM, fluorescence at 332 nm
# T4 construct: made in house; host or cells: E. coli BL21(DE3)pLys
# Description: as §1
# C222M GlTIM [5] = target: T5, C222M GlTIM (Giardia intestinalis, UniProt P36186, C222M); assay: as above; set-up: species or system Giardia lamblia
# T5 construct: made in house; host or cells: E. coli BL21(DE3)pLys
# Description: as §1
# C222V GlTIM [6] = target: T6, C222V GlTIM (Giardia intestinalis, UniProt P36186, C222V); assay: as above; set-up: species or system Giardia lamblia
# T6 construct: made in house; host or cells: E. coli BL21(DE3)pLys
# Description: as §1
# C222K GlTIM [7] = target: T7, C222K GlTIM (Giardia intestinalis, UniProt P36186, C222K); assay: as above; set-up: species or system Giardia lamblia
# T7 construct: made in house; host or cells: E. coli BL21(DE3)pLys
# Description: as §1
# C222N GlTIM [8] = target: T1, C222N GlTIM; assay: Competitive inhibition of TIM activity by 2-PG (global fit); type: biochemical, Giardia lamblia
# Description: (§2) Glyceraldehyde 3-phosphate (GAP), buffers, salts and all the other analytical grade reagents were acquired from Sigma–Aldrich; α-glycerol-3-phosphate dehydrogenase (α-GDH) was from Roche, crystallization screen kits were obtained from Hampton Research. Restriction enzymes, DNA polymerase and T4 DNA ligase were purchased from New England BioLabs and Invitrogene. Oligonucleotide synthesis and DNA sequencing was performed at the Unidad de Biología Molecular, Instituto de Fisiología Celular, UNAM. Protein concentration was determined by the bicinchoninic acid method or by absorbance at 280 nm for pure GlTIM (ε280 = 26600 M^-1cm^-1). The TIM activity was determined at 25°C by a coupled assay, following the decrease in absorbance at 340 nm. The standard reaction mixture contained 100 mM triethanolamine/10 mM EDTA, pH 7.4 (TE buffer), 1 mM GAP, 0.2 mM NADH, and 0.9 units of α-GDH (20 μg/mL); the reaction was initiated by addition of 5 ng/mL of WT, C222V or C222M GlTIM, 10 ng/mL of C222N, 20 ng/mL of C222D or C222F, and 200 ng/mL of C222K. Kinetic, binding and stability data were analyzed by non-linear regression calculations with Origin software.
# (§3) Determination of Km and Vmax was performed by fitting initial velocity data at GAP concentrations ranging from 0.3 to 3 mM to the Michaelis-Menten equation (v = Vmax•S/Km+S) by non-linear regression calculations. The kcat was derived from Vmax by considering a molecular mass for the monomer of 27.7 kDa. The Ki for 2-phosphoglycolate (2-PG) was calculated by global fit of initial velocity curves (GAP from 0.3 to 3 mM) obtained at different fixed concentrations of the inhibitor. Prior to fitting collectively the data to the simple competitive inhibition equation (v = Vmax•S/Km(1+I/Ki)+S), individual data were plotted as double reciprocal plots to confirm competitive inhibition.
# C222D GlTIM [9] = target: T2, C222D GlTIM; assay: as above; type: biochemical, Giardia lamblia; details: 2-PG vs C222D
# Description: as §2, §3
# C222F GlTIM [10] = target: T3, C222F GlTIM; assay: as above; type: biochemical, Giardia lamblia; details: 2-PG vs C222F
# Description: as §2, §3
# WT GlTIM [11] = target: T4, WT GlTIM; assay: as above; type: biochemical, Giardia lamblia; details: 2-PG vs WT GlTIM
# Description: as §2, §3
# C222M GlTIM [12] = target: T5, C222M GlTIM; assay: as above; type: biochemical, Giardia lamblia
# Description: as §2, §3
# C222V GlTIM [13] = target: T6, C222V GlTIM; assay: as above; type: biochemical, Giardia lamblia
# Description: as §2, §3
# C222K GlTIM [14] = target: T7, C222K GlTIM; assay: as above; type: biochemical, Giardia lamblia; details: highest concentrations of 2-PG that could be assayed
# Description: as §2, §3
# GlTIM = details: cited from earlier work
# [15] = test system: yeast TIM, serine replaced by alanine in the YGGS motif; set-up: method as in PMID 1390632; details: mutant vs wild type yeast TIM; cited from earlier work
# [16] = test system: yeast TIM, tyrosine by phenylalanine in the YGGS motif; set-up: method as in PMID 1390632; details: mutant vs wild type yeast TIM; cited from earlier work
# T1 sequence (P36186 whole entry C222N): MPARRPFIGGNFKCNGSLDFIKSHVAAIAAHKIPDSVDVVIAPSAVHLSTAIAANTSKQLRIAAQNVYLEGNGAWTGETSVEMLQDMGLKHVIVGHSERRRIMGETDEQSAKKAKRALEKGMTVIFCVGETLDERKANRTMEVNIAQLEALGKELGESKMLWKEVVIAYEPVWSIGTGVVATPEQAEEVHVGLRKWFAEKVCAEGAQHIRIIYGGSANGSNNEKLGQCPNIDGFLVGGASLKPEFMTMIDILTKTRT
# T6 sequence (P36186 whole entry C222V): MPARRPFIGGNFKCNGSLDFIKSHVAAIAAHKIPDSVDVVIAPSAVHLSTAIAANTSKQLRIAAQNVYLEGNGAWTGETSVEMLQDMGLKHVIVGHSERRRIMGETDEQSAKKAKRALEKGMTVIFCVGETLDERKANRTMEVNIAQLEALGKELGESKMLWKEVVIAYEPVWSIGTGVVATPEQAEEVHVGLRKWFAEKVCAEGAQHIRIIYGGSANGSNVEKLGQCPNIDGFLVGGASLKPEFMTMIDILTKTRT
# T5 sequence (P36186 whole entry C222M): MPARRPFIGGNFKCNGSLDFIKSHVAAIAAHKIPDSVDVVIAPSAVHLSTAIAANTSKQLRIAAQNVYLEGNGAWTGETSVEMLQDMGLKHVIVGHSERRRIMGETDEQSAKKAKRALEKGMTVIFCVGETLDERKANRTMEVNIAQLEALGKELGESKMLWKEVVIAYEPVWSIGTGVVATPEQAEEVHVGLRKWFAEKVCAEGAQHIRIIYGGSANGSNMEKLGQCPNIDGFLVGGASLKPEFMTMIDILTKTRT
# T3 sequence (P36186 whole entry C222F): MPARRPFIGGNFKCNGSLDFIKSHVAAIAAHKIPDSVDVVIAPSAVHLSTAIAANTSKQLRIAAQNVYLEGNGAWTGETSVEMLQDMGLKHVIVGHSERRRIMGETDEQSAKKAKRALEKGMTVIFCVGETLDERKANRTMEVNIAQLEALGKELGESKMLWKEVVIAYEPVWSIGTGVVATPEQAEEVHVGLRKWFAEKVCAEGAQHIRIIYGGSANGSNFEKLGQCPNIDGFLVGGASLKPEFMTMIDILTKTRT
# T2 sequence (P36186 whole entry C222D): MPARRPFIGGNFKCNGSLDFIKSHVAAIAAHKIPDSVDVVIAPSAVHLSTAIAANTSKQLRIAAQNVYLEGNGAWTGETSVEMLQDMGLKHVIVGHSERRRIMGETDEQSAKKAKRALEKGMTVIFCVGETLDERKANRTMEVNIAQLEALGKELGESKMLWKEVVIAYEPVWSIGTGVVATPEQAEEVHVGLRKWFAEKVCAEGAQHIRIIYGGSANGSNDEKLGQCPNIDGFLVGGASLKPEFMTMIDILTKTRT
# T4 sequence (P36186 whole entry): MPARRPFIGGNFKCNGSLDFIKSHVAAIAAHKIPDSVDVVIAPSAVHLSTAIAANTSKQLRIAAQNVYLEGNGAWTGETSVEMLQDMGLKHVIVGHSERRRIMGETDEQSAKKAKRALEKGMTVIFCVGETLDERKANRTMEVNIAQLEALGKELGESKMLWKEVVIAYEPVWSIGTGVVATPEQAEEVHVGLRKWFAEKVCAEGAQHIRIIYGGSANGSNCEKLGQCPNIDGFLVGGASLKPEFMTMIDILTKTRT
# T7 sequence (P36186 whole entry C222K): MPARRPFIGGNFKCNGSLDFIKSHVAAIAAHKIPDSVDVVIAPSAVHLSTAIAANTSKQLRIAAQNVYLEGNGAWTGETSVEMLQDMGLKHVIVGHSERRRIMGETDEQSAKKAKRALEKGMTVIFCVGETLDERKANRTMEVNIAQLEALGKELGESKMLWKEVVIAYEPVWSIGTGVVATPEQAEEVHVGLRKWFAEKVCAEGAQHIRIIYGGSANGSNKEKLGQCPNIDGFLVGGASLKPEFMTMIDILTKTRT
smiles,measurement,setting,value
"O=C(O)COP(=O)(O)O [2-PG, 2-phosphoglycolate]",Kd,"C222N GlTIM [1]; 2-PG vs C222N, fluorescence at 332 nm",113 ± 41.7 µM
same,Kd MUT/Kd WT ratio,C222N GlTIM [1]; C222N vs WT,4.29
same,changes in fluorescence induced by 2-PG,C222D GlTIM [2],minimal
same,changes in fluorescence induced by 2-PG,C222F GlTIM [3],minimal
same,Kd,WT GlTIM [4],26.4 ± 2.6 µM
same,Kd,"C222M GlTIM [5]; 2-PG vs C222M, fluorescence at 332 nm",79.4 ± 8.5 µM
same,Kd MUT/Kd WT ratio,C222M GlTIM [5]; C222M vs WT,3.01
same,Kd,"C222V GlTIM [6]; 2-PG vs C222V, fluorescence at 332 nm",57.4 ± 7.1 µM
same,Kd MUT/Kd WT ratio,C222V GlTIM [6]; C222V vs WT,2.17
same,changes in fluorescence induced by 2-PG,C222K GlTIM [7],minimal
same,Ki,"C222N GlTIM [8]; 2-PG vs C222N, competitive",560 ± 59 µM
same,Ki MUT/Ki WT ratio,C222N GlTIM [8]; C222N vs WT,6.4 and 6.44
same,Ki,C222D GlTIM [9],1480 ± 168 µM
same,Ki,C222F GlTIM [10],7280 ± 2010 µM
same,Ki,WT GlTIM [11],87 ± 15 µM
same,Ki,"C222M GlTIM [12]; 2-PG vs C222M, competitive",325 ± 50 µM
same,Ki MUT/Ki WT ratio,C222M GlTIM [12]; C222M vs WT,3.7 and 3.74
same,Ki,"C222V GlTIM [13]; 2-PG vs C222V, competitive",98 ± 10 µM
same,Ki MUT/Ki WT ratio,C222V GlTIM [13]; C222V vs WT,1.13
same,inhibition by 2-PG,C222K GlTIM [14],only minimal inhibition was observed
"O=C(O)c1cc(SSc2ccc([N+](=O)[O-])c(C(=O)O)c2)ccc1[N+](=O)[O-] [DTNB, 5,5′-dithio-bis (2-nitrobenzoic acid)]",catalytic activity of GlTIM after derivatization of C222,GlTIM,completely abolished
same,inactivation of GlTIM,GlTIM,total inactivation
"CSS(C)(=O)=O [MMTS, methylmethane thiosulfonate]",catalytic activity of GlTIM after derivatization of C222,GlTIM,reduced the catalytic activity of GlTIM by half
same,decrease of the kcat/Km ratio after modification of C222,GlTIM,three-fold decrease
"O=C(COP(=O)(O)O)NO [PGH, phosphoglycolohydroxamate]",change of affinity,[15],5 fold
same,increase in the Kd,[16],200 fold
